{"source": "patent US11466028B2", "about": "“Fused 1,4-oxazepines as BET protein degraders” (THE REGENTS OF THE UNIVERSITY OF MICHIGAN, priority 2016, dated 2022)", "assay_type_in_all_cases": "cell-based", "key": {"RS4;11": {"system": "RS4;11", "experiment": "CellTiter-Glo cell growth inhibition, RS4;11", "conditions": "Homo sapiens, RS4-11, 96 h, 4 days, Table 4, read-out: RS-4, 11 IC50", "procedure": "(§1) Cell growth inhibitory activity of representative Compounds of the Disclosure was determined using the CellTiter-Glo® Luminescent Cell Viability Assay. Cells were seeded in 384-well white opaque cell culture plates at a density of 2,000 cells/well with serially diluted compounds and incubated at 37° C. in an atmosphere of 95% air and 5% CO2 for 4 days. Cell viability was determined using the CellTiter-Glo® Luminescent Cell Viability Assay Kit (Promega, Madison, Wis.) according to the manufacture's instruction. Briefly, a volume of CellTiter-Glo® Reagent equal to the volume of cell culture medium was added to each well, and then the plates were incubated at room temperature for 10-20 minutes. The luminescent signal was measured using a Tecan Infinite M1000 multimode microplate reader (Tecan, Morrisville, N.C.). The half maximal inhibitory concentration (IC50) was calculated using the GraphPad Prism 5 software (GraphPad Software, La Jolla, Calif.).\n(§2) Cpd. Nos. 18 and 19 were tested in various leukemia cell lines using the CellTiter-Glo® Luminescent Cell Viability Assay as described in Example 35."}, "MDA-MB-231": {"system": "MDA-MB-231", "experiment": "CellTiter-Glo cell growth inhibition, MDA-MB-231", "conditions": "Homo sapiens, MDA-MB-231, 96 h, 4 days, Table 4", "procedure": "as §1"}, "MOLM-13": {"system": "MOLM-13", "experiment": "CellTiter-Glo cell growth inhibition, MOLM-13", "conditions": "Homo sapiens, MOLM-13, 96 h, 4 days, Table 4, read-out: MOLM-13 IC50", "procedure": "as §1, §2"}}, "note": "pIC50: −log10 of the molar value."}
{"smiles": "Cc1nnc2n1-c1sc(C#Cc3cnn(CCCC#Cc4cccc5c4C(=O)N(C4CCC(=O)NC4=O)C5=O)c3)c(Cc3ccccc3)c1CO[C@H]2C", "note": "(stereo partly drawn) [Cpd. No. 14, 4-(5-(4-(((S)-3-benzyl-6,9-dimethyl-4H,6H-thieno[2,3-e][1,2,4]triazolo[3,4-c][1,4]oxazepin-2-yl)ethynyl)-1H-pyrazol-1-yl)pent-1-yn-1-yl)-2-(2,6-dioxopiperidin-3-yl)isoindoline-1,3-dione]", "values": [{"measurement": "pIC50", "setting": "RS4;11", "value": 9.37}, {"measurement": "pIC50", "setting": "MDA-MB-231", "value": 8.03}, {"measurement": "pIC50", "setting": "MOLM-13", "value": 8.06}]}
{"smiles": "Cc1nnc2n1-c1sc(C#Cc3cn(CCCCNc4cccc5c4CN(C4CCC(=O)NC4=O)C5=O)cn3)c(Cc3ccccc3)c1CO[C@H]2C", "note": "(stereo partly drawn) [Cpd. No. 13, 3-(4-((4-(4-(((S)-3-benzyl-6,9-dimethyl-4H,6H-thieno[2,3-e][1,2,4]triazolo[3,4-c][1,4]oxazepin-2-yl)ethynyl)-1H-imidazol-1-yl)butyl)amino)-1-oxoisoindolin-2-yl)piperidine-2,6-dione]", "values": [{"measurement": "pIC50", "setting": "RS4;11", "value": 8.74}, {"measurement": "pIC50", "setting": "MDA-MB-231", "value": 7.24}, {"measurement": "pIC50", "setting": "MOLM-13", "value": 7.70}]}
{"smiles": "Cc1nnc2n1-c1sc(C#Cc3cnn(CCOCCNc4cccc5c4C(=O)N(C4CCC(=O)NC4=O)C5=O)c3)c(Cc3ccccc3)c1CO[C@H]2C", "note": "(stereo partly drawn) [Cpd. No. 9, 4-((2-(2-(4-(((S)-3-benzyl-6,9-dimethyl-4H,6H-thieno[2,3-e][1,2,4]triazolo[3,4-c][1,4]oxazepin-2-yl)ethynyl)-1H-pyrazol-1-yl)ethoxy)ethyl)amino)-2-(2,6-dioxopiperidin-3-yl)isoindoline-1,3-dione]", "values": [{"measurement": "pIC50", "setting": "MDA-MB-231", "value": 8.33}, {"measurement": "pIC50", "setting": "MOLM-13", "value": 8.96}]}
{"smiles": "Cc1nnc2n1-c1sc(C#Cc3cnn(CCCCOc4cccc5c4C(=O)N(C4CCC(=O)NC4=O)C5=O)c3)c(Cc3ccccc3)c1COC2", "note": "(stereo not drawn) [Cpd. No. 45, 4-(4-(4-((3-benzyl-9-methyl-4H,6H-thieno[2,3-e][1,2,4]triazolo[3,4-c][1,4]oxazepin-2-yl)ethynyl)-1H-pyrazol-1-yl)butoxy)-2-(2,6-dioxopiperidin-3-yl) isoindoline-1,3-dione]", "values": [{"measurement": "pIC50", "setting": "RS4;11", "value": "> 10.00"}, {"measurement": "pIC50", "setting": "MDA-MB-231", "value": 8.49}, {"measurement": "pIC50", "setting": "MOLM-13", "value": 8.49}]}
{"smiles": "Cc1nnc2n1-c1sc(C#Cc3cnc(CCCC#Cc4cccc5c4C(=O)N(C4CCC(=O)NC4=O)C5=O)[nH]3)c(Cc3ccccc3)c1CO[C@H]2C", "note": "(stereo partly drawn) [Cpd. No. 12, 4-(5-(5-(((S)-3-benzyl-6,9-dimethyl-4H,6H-thieno[2,3-e][1,2,4]triazolo[3,4-c][1,4]oxazepin-2-yl)ethynyl)-1H-imidazol-2-yl)pent-1-yn-1-yl)-2-(2,6-dioxopiperidin-3-yl)isoindoline-1,3-dione]", "values": [{"measurement": "pIC50", "setting": "RS4;11", "value": "< 6.00"}, {"measurement": "pIC50", "setting": "MDA-MB-231", "value": "< 6.00"}, {"measurement": "pIC50", "setting": "MOLM-13", "value": "< 6.00"}]}
{"smiles": "Cc1nnc2n1-c1sc(C#CCOCCOCCOc3cccc4c3C(=O)N(C3CCC(=O)NC3=O)C4=O)c(Cc3ccccc3)c1CO[C@H]2C", "note": "(stereo partly drawn) [Cpd. No. 2, 4-(2-(2-((3-((S)-3-benzyl-6,9-dimethyl-4H,6H-thieno-[2,3-e][1,2,4]triazolo[3,4-c][1,4]oxazepin-2-yl)prop-2-yn-1-yl)oxy)ethoxy)ethoxy)-2-(2,6-dioxopiperidin-3-yl)isoindoline-1,3-dione]", "values": [{"measurement": "pIC50", "setting": "MDA-MB-231", "value": 6.65}, {"measurement": "pIC50", "setting": "MOLM-13", "value": 7.46}]}
{"smiles": "Cc1nnc2n1-c1sc(C#Cc3ccc(CNc4cccc5c4C(=O)N(C4CCC(=O)NC4=O)C5=O)nc3)c(Cc3ccccc3)c1CO[C@H]2C", "note": "(stereo partly drawn) [Cpd. No. 8, 4-(((5-(((S)-3-benzyl-6,9-dimethyl-4H,6H-thieno[2,3-e][1,2,4]triazolo[3,4-c][1,4]oxazepin-2-yl)ethynyl)pyridin-2-yl)methyl)amino)-2-(2,6-dioxopiperidin-3-yl) isoindoline-1,3-dione]", "values": [{"measurement": "pIC50", "setting": "MDA-MB-231", "value": 5.83}, {"measurement": "pIC50", "setting": "MOLM-13", "value": 6.93}]}
{"smiles": "Cc1nnc2n1-c1sc(C#CCOCCOCCOCCNc3cccc4c3C(=O)N(C3CCC(=O)NC3=O)C4=O)c(Cc3ccccc3)c1CO[C@H]2C", "note": "(stereo partly drawn) [Cpd. No. 4, 4-((2-(2-(2-((3-((S)-3-benzyl-6,9-dimethyl-4H,6H-thieno[2,3-e][1,2,4]triazolo[3,4-c][1,4]oxazepin-2-yl)prop-2-yn-1-yl)oxy)ethoxy)ethoxy)ethyl)amino)-2-(2,6-dioxopiperidin-3-yl)isoindoline-1,3-dione]", "values": [{"measurement": "pIC50", "setting": "MDA-MB-231", "value": 7.89}, {"measurement": "pIC50", "setting": "MOLM-13", "value": 9.10}]}
{"smiles": "Cc1nnc2n1-c1sc(C#Cc3cnn(CCNc4cccc5c4C(=O)N(C4CCC(=O)NC4=O)C5=O)c3)c(Cc3ccccc3)c1CO[C@H]2C", "note": "(stereo partly drawn) [Cpd. No. 6, 4-((2-(4-(((S)-3-benzyl-6,9-dimethyl-4H,6H-thieno[2,3-e][1,2,4]triazolo[3,4-c][1,4]oxazepin-2-yl)ethynyl)-1H-pyrazol-1-yl)ethyl)amino)-2-(2,6-dioxopiperidin-3-yl)isoindoline-1,3-dione]", "values": [{"measurement": "pIC50", "setting": "MDA-MB-231", "value": 7.19}, {"measurement": "pIC50", "setting": "MOLM-13", "value": 7.22}]}
{"smiles": "Cc1nnc2n1-c1sc(C#Cc3cnn(CCCNc4cccc5c4C(=O)N(C4CCC(=O)NC4=O)C5=O)c3)c(Cc3ccccc3)c1CO[C@H]2C", "note": "(stereo partly drawn) [Cpd. No. 10, 4-((3-(4-(((S)-3-benzyl-6,9-dimethyl-4H,6H-thieno[2,3-e][1,2,4]triazolo[3,4-c][1,4]oxazepin-2-yl)ethynyl)-1H-pyrazol-1-yl)propyl)amino)-2-(2,6-dioxopiperidin-3-yl)isoindoline-1,3-dione]", "values": [{"measurement": "pIC50", "setting": "MDA-MB-231", "value": 7.47}, {"measurement": "pIC50", "setting": "MOLM-13", "value": 8.59}]}
{"smiles": "Cc1nnc2n1-c1sc(C#Cc3cn(CCCC#Cc4cccc5c4CN(C4CCC(=O)NC4=O)C5=O)cn3)c(Cc3ccccc3)c1CO[C@H]2C", "note": "(stereo partly drawn) [Cpd. No. 20, 3-(4-(5-(4-(((S)-3-benzyl-6,9-dimethyl-4H,6H-thieno[2,3-e][1,2,4]triazolo[3,4-c][1,4]oxazepin-2-yl)ethynyl)-1H-imidazol-1-yl)pent-1-yn-1-yl)-1-oxoisoindolin-2-yl)piperidine-2,6-dione]", "values": [{"measurement": "pIC50", "setting": "RS4;11", "value": 9.15}, {"measurement": "pIC50", "setting": "MDA-MB-231", "value": 7.80}, {"measurement": "pIC50", "setting": "MOLM-13", "value": 8.42}]}
{"smiles": "Cc1nnc2n1-c1sc(C#Cc3cnc(CCCC#Cc4cccc5c4CN(C4CCC(=O)NC4=O)C5=O)n3C)c(Cc3ccccc3)c1CO[C@H]2C", "note": "(stereo partly drawn) [Cpd. No. 15, 3-(4-(5-(5-(((S)-3-benzyl-6,9-dimethyl-4H,6H-thieno[2,3-e][1,2,4]triazolo[3,4-c][1,4]oxazepin-2-yl)ethynyl)-1-methyl-1H-imidazol-2-yl)pent-1-yn-1-yl)-1-oxoisoindolin-2-yl)piperidine-2,6-dione]", "values": [{"measurement": "pIC50", "setting": "RS4;11", "value": 9.70}, {"measurement": "pIC50", "setting": "MDA-MB-231", "value": 7.60}, {"measurement": "pIC50", "setting": "MOLM-13", "value": 8.12}]}
{"smiles": "Cc1nnc2n1-c1sc(C#Cc3cnn(CCCC#Cc4cccc5c4C(=O)N(C4CCC(=O)NC4=O)C5=O)c3)c(Cc3ccccc3)c1COC2", "note": "(stereo not drawn) [Cpd. No. 49, 4-(5-(4-((3-benzyl-9-methyl-4H,6H-thieno[2,3-e][1,2,4]triazolo[3,4-c][1,4]oxazepin-2-yl)ethynyl)-1H-pyrazol-1-yl)pent-1-yn-1-yl)-2-(2,6-dioxopiperidin-3-yl)isoindoline-1,3-dione]", "values": [{"measurement": "pIC50", "setting": "RS4;11", "value": 9.25}, {"measurement": "pIC50", "setting": "MDA-MB-231", "value": 8.26}, {"measurement": "pIC50", "setting": "MOLM-13", "value": 8.02}]}
{"smiles": "Cc1nnc2n1-c1sc(C#CCOCCOCCNc3cccc4c3C(=O)N(C3CCC(=O)NC3=O)C4=O)c(Cc3ccccc3)c1CO[C@H]2C", "note": "(stereo partly drawn) [Cpd. No. 3, 4-((2-(2-((3-((S)-3-benzyl-6,9-dimethyl-4H,6H-thieno[2,3-e][1,2,4]triazolo[3,4-c][1,4]oxazepin-2-yl)prop-2-yn-1-yl)oxy)ethoxy)ethyl)amino)-2-(2,6-dioxopiperidin-3-yl)isoindoline-1,3-dione]", "values": [{"measurement": "pIC50", "setting": "MDA-MB-231", "value": 7.31}, {"measurement": "pIC50", "setting": "MOLM-13", "value": 8.59}]}
{"smiles": "Cc1nnc2n1-c1sc(C#Cc3ccc(CCCCNc4cc(F)cc5c4CN(C4CCC(=O)NC4=O)C5=O)nc3)c(Cc3ccccc3)c1COC2", "note": "(stereo not drawn) [Cpd. No. 47, 3-(4-((4-(5-((3-benzyl-9-methyl-4H,6H-thieno[2,3-e][1,2,4]triazolo[3,4-c][1,4]oxazepin-2-yl)ethynyl)pyridin-2-yl)butyl)amino)-6-fluoro-1-oxoisoindolin-2-yl)piperidine-2,6-dione]", "values": [{"measurement": "pIC50", "setting": "RS4;11", "value": "> 10.00"}, {"measurement": "pIC50", "setting": "MDA-MB-231", "value": 8.64}, {"measurement": "pIC50", "setting": "MOLM-13", "value": 8.74}]}
{"smiles": "Cc1nnc2n1-c1sc(C#Cc3ccc(CCCCNc4cccc5c4CN(C4CCC(=O)NC4=O)C5=O)nc3)c(Cc3ccccc3)c1COC2", "note": "(stereo not drawn) [Cpd. No. 46, 3-(4-((4-(5-((3-benzyl-9-methyl-4H,6H-thieno[2,3-e][1,2,4]triazolo[3,4-c][1,4]oxazepin-2-yl)ethynyl)pyridin-2-yl)butyl)amino)-1-oxoisoindolin-2-yl) piperidine-2,6-dione]", "values": [{"measurement": "pIC50", "setting": "RS4;11", "value": "> 10.00"}, {"measurement": "pIC50", "setting": "MDA-MB-231", "value": 8.62}, {"measurement": "pIC50", "setting": "MOLM-13", "value": 8.55}]}
{"smiles": "Cc1nnc2n1-c1sc(C#CCOCCNc3cccc4c3C(=O)N(C3CCC(=O)NC3=O)C4=O)c(Cc3ccccc3)c1CO[C@H]2C", "note": "(stereo partly drawn) [Cpd. No. 1, 4-((2-((3-((S)-3-benzyl-6,9-dimethyl-4H,6H-thieno[2,3-e][1,2,4]triazolo[3,4-c][1,4]oxazepin-2-yl)prop-2-yn-1-yl)oxy)ethyl)amino)-2-(2,6-dioxopiperidin-3-yl) isoindoline-1,3-dione]", "values": [{"measurement": "pIC50", "setting": "MDA-MB-231", "value": 5.77}, {"measurement": "pIC50", "setting": "MOLM-13", "value": 6.09}]}
{"smiles": "Cc1nnc2n1-c1sc(C#CCOCCOCCOCCOCCNc3cccc4c3C(=O)N(C3CCC(=O)NC3=O)C4=O)c(Cc3ccccc3)c1CO[C@H]2C", "note": "(stereo partly drawn) [Cpd. No. 5, 4-((15-((S)-3-benzyl-6,9-dimethyl-4H,6H-thieno[2,3-e][1,2,4]triazolo[3,4-c][1,4]oxazepin-2-yl)-3,6,9,12-tetraoxapentadec-14-yn-1-yl)amino)-2-(2,6-dioxopiperidin-3-yl)isoindoline-1,3-dione]", "values": [{"measurement": "pIC50", "setting": "MDA-MB-231", "value": 8.21}, {"measurement": "pIC50", "setting": "MOLM-13", "value": 9.15}]}
